Among the data in the OligoGym collection are target mRNA inhibition values, retold here.

One data set addresses IRF5. Conditions: ASO, KARPAS-229, 4 µM.
The next data set has as its target HBV. Conditions: ASO.

Where “and” joins values, the source holds several entries; their conditions need not be identical. Identical values can stand only once. After the bases stand the sugars from the 5' end (letter, count) and the backbone: PS all phosphorothioate, else s phosphorothioate and o phosphodiester by linkage. HELM strings list units from the 5' end as sugar, base in round brackets, then linkage (d deoxyribose, r ribose, m 2'-O-methyl, p phosphodiester). Methylation of C is not given here. [moe] = 2'-O-(2-methoxyethyl) (MOE); [cEt] = constrained ethyl (cEt); [sp] = phosphorothioate linkage; e = 2'-O-(2-methoxyethyl) (MOE); k = constrained ethyl (cEt); d = 2'-deoxy (DNA)

Regarding “GGTCTGGCCCTTTTGG (sugars kkkddddddddkekek, PS)”, the target mRNA inhibition with IRF5 came out at 2%. Turning to “CTTGGTCTTGACCTCC (sugars k2 d9 e3 k2, PS)”, the target mRNA inhibition with IRF5 was 11%.

“AGGAGTGAGACGAGCA (sugars kdddddddddkekeke, PS)” had a target mRNA inhibition with IRF5 of 0%. As for “ATCACCACTGTGTACC (sugars kekdddddddddeekk, PS)”, the target mRNA inhibition in the data set with IRF5 was found to be 0%. In the case of “RNA1{[moe](T)[sp].[moe](G)[sp].[moe](G)[sp].d(A)[sp].d(G)[sp].d(C)[sp].d(C)[sp].d(A)[sp].d(C)[sp].d(C)[sp].d(A)[sp].d(G)[sp].d(C)[sp].[cEt](A)[sp].[cEt](G)[sp].[cEt](G)}$$$$V2.0”, in the data set with HBV (HepG2, 0.07 µM), the target mRNA inhibition was 60% and 67%.

Turning to “RNA1{[moe](A)[sp].[moe](C)[sp].[moe](T)[sp].[moe](G)[sp].[moe](G)[sp].d(A)[sp].d(G)[sp].d(C)[sp].d(C)[sp].d(A)[sp].d(C)[sp].d(C)[sp].d(A)[sp].d(G)[sp].[moe](C)[sp].[moe](A)}$$$$V2.0”, the target mRNA inhibition in the data set with HBV (HepG2, 0.07 µM) was 54% and 48%. In the case of “RNA1{[moe](G)[sp].[moe](A)[sp].d(A)[sp].d(G)[sp].d(C)[sp].d(G)[sp].d(A)[sp].d(A)[sp].d(G)[sp].d(T)[sp].d(G)[sp].[moe](C)[sp].[moe](A)[sp].[moe](C)[sp].[moe](A)[sp].[moe](C)}$$$$V2.0”, the target mRNA inhibition is 9% with HBV (HepG2, 0.0092593 µM); 34% with HBV (HepG2, 0.0277778 µM); 71% and 64% in the data set with HBV (HepG2, 0.07 µM); 53% with HBV (HepG2, 0.0833333 µM); 81% with HBV (HepG2, 0.25 µM). Take “RNA1{[moe](G)[sp].[moe](C)[sp].[moe](A)[sp].[moe](G)[sp].d(T)[sp].d(A)[sp].d(T)[sp].d(G)[sp].d(G)[sp].d(A)[sp].d(T)[sp].d(C)[sp].d(G)[sp].[moe](G)[sp].[moe](C)[sp].[moe](A)}$$$$V2.0”: in the data set with HBV (HepG2, 0.07 µM), the target mRNA inhibition is 69% and 61%.

In the case of “RNA1{[moe](G)[sp].[moe](A)[sp].[moe](A)[sp].d(C)[sp].d(A)[sp].d(A)[sp].d(A)[sp].d(T)[sp].d(G)[sp].d(G)[sp].d(C)[sp].d(A)[sp].d(C)[sp].[cEt](T)[sp].[cEt](A)[sp].[cEt](G)}$$$$V2.0”, the target mRNA inhibition in the data set with HBV (HepG2, 0.0092593 µM) was 15%; with HBV (HepG2, 0.0277778 µM), 40%; with HBV (HepG2, 0.07 µM), 80% and 81%; with HBV (HepG2, 0.0833333 µM) it was 69%; with HBV (HepG2, 0.25 µM), 86%. For “RNA1{[moe](C)[sp].[cEt](G)[sp].d(C)[sp].d(A)[sp].d(G)[sp].d(T)[sp].d(A)[sp].d(T)[sp].d(G)[sp].d(G)[sp].d(A)[sp].d(T)[sp].[cEt](C)[sp].[moe](G)[sp].[cEt](G)[sp].[moe](C)}$$$$V2.0”, the target mRNA inhibition with HBV (HepG2, 0.0092593 µM) is 22%; with HBV (HepG2, 0.0277778 µM) it was 49%; with HBV (HepG2, 0.07 µM), 83% and 92%; in the data set with HBV (HepG2, 0.0833333 µM) it was 82%; in the data set with HBV (HepG2, 0.25 µM), 91%. With “RNA1{[moe](T)[sp].[cEt](G)[sp].d(A)[sp].d(A)[sp].d(G)[sp].d(C)[sp].d(G)[sp].d(A)[sp].d(A)[sp].d(G)[sp].d(T)[sp].d(G)[sp].[cEt](C)[sp].[moe](A)[sp].[cEt](C)[sp].[moe](A)}$$$$V2.0”, in the data set with HBV (HepG2, 0.07 µM), the target mRNA inhibition is 76% and 71%. On to “RNA1{[moe](C)[sp].[moe](A)[sp].[moe](G)[sp].[moe](A)[sp].d(G)[sp].d(G)[sp].d(T)[sp].d(G)[sp].d(A)[sp].d(A)[sp].d(G)[sp].d(C)[sp].d(G)[sp].[moe](A)[sp].[moe](A)[sp].[moe](G)}$$$$V2.0”, for which, in the data set with HBV (HepG2, 0.07 µM), the target mRNA inhibition was 47% and 50%. The same measure, in the same setting: the result for “RNA1{[moe](G)[sp].[moe](C)[sp].[moe](A)[sp].[moe](G)[sp].d(A)[sp].d(G)[sp].d(G)[sp].d(T)[sp].d(G)[sp].d(A)[sp].d(A)[sp].d(G)[sp].d(C)[sp].[moe](G)[sp].[moe](A)[sp].[moe](A)[sp].[moe](G)}$$$$V2.0” reads 52%. With “RNA1{[moe](C)[sp].[moe](C)[sp].[moe](G)[sp].[moe](C)[sp].[moe](A)[sp].d(G)[sp].d(T)[sp].d(A)[sp].d(T)[sp].d(G)[sp].d(G)[sp].d(A)[sp].d(T)[sp].d(C)[sp].[moe](G)[sp].[moe](G)[sp].[moe](C)}$$$$V2.0”, the target mRNA inhibition in the data set with HBV (HepG2, 0.0092593 µM) is 5%; in the data set with HBV (HepG2, 0.0277778 µM), 38%; in the data set with HBV (HepG2, 0.07 µM), 86% and 76%; with HBV (HepG2, 0.0833333 µM) it was 65%; with HBV (HepG2, 0.25 µM), 86%.

As for “RNA1{[moe](A)[sp].[moe](G)[sp].[moe](A)[sp].[moe](G)[sp].[moe](A)[sp].d(A)[sp].d(G)[sp].d(T)[sp].d(C)[sp].d(C)[sp].d(A)[sp].d(C)[sp].d(C)[sp].d(A)[sp].[moe](C)[sp].[moe](G)[sp].[moe](A)}$$$$V2.0”, the target mRNA inhibition with HBV (HepG2, 0.07 µM) was 28% and 27%. Still for that read-out and setting: the result for “RNA1{[moe](A)[sp].[moe](C)[sp].[moe](C)[sp].d(A)[sp].d(A)[sp].d(T)[sp].d(T)[sp].d(T)[sp].d(A)[sp].d(T)[sp].d(G)[sp].d(C)[sp].[moe](C)[sp].[moe](T)[sp].[moe](A)[sp].[moe](C)[sp].[moe](A)}$$$$V2.0” reads 31% and 33%; that for “RNA1{[moe](A)[sp].[moe](C)[sp].[moe](T)[sp].[moe](G)[sp].[moe](G)[sp].d(A)[sp].d(G)[sp].d(C)[sp].d(C)[sp].d(A)[sp].d(C)[sp].d(C)[sp].d(A)[sp].d(G)[sp].[moe](C)[sp].[moe](A)[sp].[moe](G)}$$$$V2.0”, 46% and 39%; that for “RNA1{[moe](G)[sp].[cEt](A)[sp].d(A)[sp].d(C)[sp].d(C)[sp].d(A)[sp].d(C)[sp].d(T)[sp].d(G)[sp].d(A)[sp].d(A)[sp].d(C)[sp].[cEt](A)[sp].[moe](A)[sp].[cEt](A)[sp].[moe](T)}$$$$V2.0”, 49% and 43%. For “RNA1{[moe](T)[sp].[moe](G)[sp].[moe](A)[sp].d(A)[sp].d(G)[sp].d(C)[sp].d(G)[sp].d(A)[sp].d(A)[sp].d(G)[sp].d(T)[sp].d(G)[sp].[moe](C)[sp].[moe](A)[sp].[moe](C)[sp].[moe](A)}$$$$V2.0”, the target mRNA inhibition in the data set with HBV (HepG2, 0.0092593 µM) was 11%; with HBV (HepG2, 0.0277778 µM), 22%; in the data set with HBV (HepG2, 0.07 µM), 76% and 66%; in the data set with HBV (HepG2, 0.0833333 µM), 44%; with HBV (HepG2, 0.25 µM), 64%.

In the case of “RNA1{[moe](C)[sp].[moe](A)[sp].d(A)[sp].d(T)[sp].d(T)[sp].d(T)[sp].d(A)[sp].d(T)[sp].d(G)[sp].d(C)[sp].d(C)[sp].[moe](T)[sp].[moe](A)[sp].[moe](C)[sp].[moe](A)[sp].[moe](G)}$$$$V2.0”, in the data set with HBV (HepG2, 0.07 µM), the target mRNA inhibition was 27% and 25%. Take “RNA1{[moe](G)[sp].[cEt](A)[sp].d(T)[sp].d(G)[sp].d(A)[sp].d(G)[sp].d(G)[sp].d(C)[sp].d(A)[sp].d(T)[sp].d(A)[sp].d(G)[sp].[cEt](C)[sp].[moe](A)[sp].[cEt](G)[sp].[moe](C)}$$$$V2.0”: the target mRNA inhibition in the data set with HBV (HepG2, 0.07 µM) was 70% and 66%.

Regarding “RNA1{[moe](G)[sp].[moe](A)[sp].[moe](G)[sp].d(G)[sp].d(C)[sp].d(A)[sp].d(T)[sp].d(A)[sp].d(G)[sp].d(C)[sp].d(A)[sp].d(G)[sp].d(C)[sp].[cEt](A)[sp].[cEt](G)[sp].[cEt](G)}$$$$V2.0”, in the data set with HBV (HepG2, 0.07 µM), the target mRNA inhibition is 75% and 74%. For the substance “RNA1{[moe](C)[sp].[cEt](G)[sp].d(A)[sp].d(A)[sp].d(C)[sp].d(C)[sp].d(A)[sp].d(C)[sp].d(T)[sp].d(G)[sp].d(A)[sp].d(A)[sp].[cEt](C)[sp].[moe](A)[sp].[cEt](A)[sp].[moe](A)}$$$$V2.0”, in the data set with HBV (HepG2, 0.07 µM), the target mRNA inhibition was 45% and 49%. Consider “RNA1{[moe](C)[sp].[cEt](A)[sp].[cEt](G)[sp].d(C)[sp].d(A)[sp].d(A)[sp].d(A)[sp].d(C)[sp].d(A)[sp].d(C)[sp].d(T)[sp].d(T)[sp].d(G)[sp].[cEt](G)[sp].[cEt](C)[sp].[moe](A)}$$$$V2.0”, for which the target mRNA inhibition in the data set with HBV (HepG2, 0.07 µM) is 62% and 61%. Turning to “RNA1{[moe](T)[sp].[moe](G)[sp].[moe](C)[sp].d(A)[sp].d(G)[sp].d(A)[sp].d(G)[sp].d(G)[sp].d(T)[sp].d(G)[sp].d(A)[sp].d(A)[sp].[moe](G)[sp].[moe](C)[sp].[moe](G)[sp].[moe](A)[sp].[moe](A)}$$$$V2.0”, the target mRNA inhibition with HBV (HepG2, 0.07 µM) was 75% and 63%. As to “RNA1{[moe](C)[sp].[moe](G)[sp].d(A)[sp].d(A)[sp].d(C)[sp].d(C)[sp].d(A)[sp].d(C)[sp].d(T)[sp].d(G)[sp].d(A)[sp].[moe](A)[sp].[moe](C)[sp].[moe](A)[sp].[moe](A)[sp].[moe](A)[sp].[moe](T)}$$$$V2.0”, the target mRNA inhibition with HBV (HepG2, 0.07 µM) is 55% and 36%. Turning to “RNA1{[moe](A)[sp].[cEt](A)[sp].[cEt](G)[sp].d(A)[sp].d(T)[sp].d(G)[sp].d(A)[sp].d(G)[sp].d(G)[sp].d(C)[sp].d(A)[sp].d(T)[sp].d(A)[sp].[cEt](G)[sp].[cEt](C)[sp].[moe](A)}$$$$V2.0”, the target mRNA inhibition in the data set with HBV (HepG2, 0.07 µM) was 64% and 62%.

Take “RNA1{[moe](A)[sp].[moe](C)[sp].d(T)[sp].d(A)[sp].d(G)[sp].d(T)[sp].d(A)[sp].d(A)[sp].d(A)[sp].d(C)[sp].d(T)[sp].[moe](G)[sp].[moe](A)[sp].[moe](G)[sp].[moe](C)[sp].[moe](C)}$$$$V2.0”: the target mRNA inhibition in the data set with HBV (HepG2, 0.07 µM) was 57% and 47%. For “RNA1{[moe](A)[sp].[cEt](G)[sp].[cEt](C)[sp].d(G)[sp].d(A)[sp].d(A)[sp].d(G)[sp].d(T)[sp].d(G)[sp].d(C)[sp].d(A)[sp].d(C)[sp].d(A)[sp].[cEt](C)[sp].[cEt](G)[sp].[moe](G)}$$$$V2.0”, the target mRNA inhibition with HBV (HepG2, 0.0092593 µM) was 19%; with HBV (HepG2, 0.0277778 µM) it was 52%; with HBV (HepG2, 0.07 µM), 83% and 82%; with HBV (HepG2, 0.0833333 µM), 86%; with HBV (HepG2, 0.25 µM), 93%. As to “RNA1{[moe](A)[sp].[cEt](G)[sp].[cEt](C)[sp].d(T)[sp].d(T)[sp].d(G)[sp].d(G)[sp].d(A)[sp].d(G)[sp].d(G)[sp].d(C)[sp].d(T)[sp].d(T)[sp].[cEt](G)[sp].[cEt](A)[sp].[moe](A)}$$$$V2.0”, in the data set with HBV (HepG2, 0.07 µM), the target mRNA inhibition was 5% and 0%. Same read-out and setting: to “RNA1{[moe](C)[sp].[moe](G)[sp].d(A)[sp].d(A)[sp].d(C)[sp].d(C)[sp].d(A)[sp].d(C)[sp].d(T)[sp].d(G)[sp].d(A)[sp].[moe](A)[sp].[moe](C)[sp].[moe](A)[sp].[moe](A)[sp].[moe](A)}$$$$V2.0” belongs 37% and 23%.
